Assay results from paper PMC8405091, “Microwave-assisted Phospha-Michael addition reactions in the 13α-oestrone series and in vitro antiproliferative properties” (Journal of Enzyme Inhibition and Medicinal Chemistry, 2021).

Legend:
A2780 cells = experiment: MTT antiproliferative assay, A2780; type: cell-based, human
Method: (§1) The antiproliferative properties of the newly synthesized compounds (9–20) and their starting materials (4 and 5) were determined on a panel of human adherent cancer cell lines. MCF-7, MDA-MB-231 and T47D were isolated from breast cancers differing in biochemical background, while A2780 cells were isolated from ovarian cancer. HeLa and SiHa are cervical cancer cell lines positive for HPV-18 and HPV-16, respectively, while C33-A cervical cancer cells are negative for HPV. Moreover, two oropharyngeal cancer cell lines were also utilized: the HPV-negative UPCI-SCC-131 and HPV-16 positive UPCI-SCC-154. The cancer selectivity of compounds was tested on the non-cancerous mouse embryo fibroblast cell line NIH/3T3. All cell lines were purchased from European Collection of Cell Cultures (ECCAC, Salisbury, UK) exception for SiHa and C33-A (American Tissue Culture Collection, Manassas, VA, USA) and HN-SCC-131 and UPCI-SCC-154 (German Collection of Microorganisms and Cell Cultures GmbH, Braunschweig, Germany). Cells were cultivated in minimal essential medium supplemented with 10% fetal bovine serum, 1% non-essential amino acids and an antibiotic–antimycotic mixture. The medium of oropharyngeal cancer cells additionally contained 2.0 mM L-glutamine. All media and supplements were obtained from Lonza Group Ltd., Basel, Switzerland. Near-confluent cancer cells were seeded onto a 96-well microplate at a density of 5,000 cells/well, except for C33-A which were seeded at 10,000/well. After overnight standing, new medium containing the tested compounds at 10 and 30 µM final concentration was added. After incubation for 72 h at 37 °C in humidified air containing 5% CO2, the living cells were assayed by the addition of 20 μL of 5 mg/ml 3-(4,5-dimethylthiazol-2-yl)-2,5-diphenyltetrazolium bromide (MTT) solution. MTT was converted by intact mitochondrial reductase and precipitated as purple crystals during a 4-h contact period. The medium was next removed and the precipitated formazan crystals were dissolved in 100 μL of DMSO during a 60-min period of shaking at 37 ^оC.
(§2) All in vitro experiments were carried out twice with five parallels. Stock solutions of the tested substances (10 mM) were prepared in DMSO. […] Cisplatin (Ebewe Pharma GmbH, Unterach, Austria) was used as positive control.

UPCI-SCC-154 cells = experiment: MTT antiproliferative assay, UPCI-SCC-154; type: cell-based, human
Method: as §1, §2

HeLa cells = experiment: MTT antiproliferative assay, HeLa; type: cell-based, human; settings: 72 h
Method: as §1, §2

SiHa cells = experiment: MTT antiproliferative assay, SiHa; type: cell-based, human; settings: 72 h
Method: as §1, §2

MDA-MB-231 cells = experiment: MTT antiproliferative assay, MDA-MB-231; type: cell-based, human
Method: as §1, §2

[1] = system: non-cancerous mouse embryo fibroblast (NIH/3T3) cells; experiment: MTT assay on non-cancerous fibroblasts (tumour selectivity); type: cell-based; settings: Mus musculus, NIH3T3
Method: as §1, §2

UPCI-SCC-131 cells = experiment: MTT antiproliferative assay, UPCI-SCC-131; type: cell-based, human
Method: as §1, §2

C33-A cells = experiment: MTT antiproliferative assay, C33-A; type: cell-based, human; settings: C33-A, 72 h
Method: as §1, §2

T47D cells = experiment: MTT antiproliferative assay, T47D; type: cell-based, human; settings: 72 h
Method: as §1, §2

MCF-7 cells = experiment: MTT antiproliferative assay, MCF-7; type: cell-based, human
Method: as §1, §2

[2] = Homo sapiens, 10 μM, read-out: Growth inhibition, % ± SEM
[3] = Homo sapiens, 30 μM, read-out: Growth inhibition, % ± SEM
[4] = Homo sapiens, read-out: calculated IC50 value

In the case of `C=C1C[C@H]2[C@@H]3CCc4cc(OCc5ccccc5)ccc4[C@H]3CC[C@@]2(C)C1=O` [Compound 5], the IC50 (A2780 cells; Homo sapiens, A2780, 72 h, read-out: calculated IC50 value) is reported as 6.7 µM, the inhibition at 10 µM (A2780 cells; Homo sapiens, A2780, 10 μM, 72 h, read-out: Growth inhibition, % ± SEM) is reported as 94.8 ± 2.13% and the inhibition at 30 µM (A2780 cells; Homo sapiens, A2780, 30 μM, 72 h, read-out: Growth inhibition, % ± SEM) is reported as 100.9 ± 0.18%. The inhibition at 10 µM (UPCI-SCC-154 cells; Homo sapiens, UPCI-SCC-154, 10 μM, 72 h, read-out: Growth inhibition, % ± SEM) was 96.4 ± 0.89%, the inhibition at 30 µM (UPCI-SCC-154 cells; Homo sapiens, UPCI-SCC-154, 30 μM, 72 h, read-out: Growth inhibition, % ± SEM) was 100.3 ± 0.82% and the IC50 (UPCI-SCC-154 cells; Homo sapiens, UPCI-SCC-154, 72 h, read-out: calculated IC50 value) was 4.5 µM. It also gave an inhibition at 10 µM (HeLa cells; [2]) of 75.1 ± 3.73%, an inhibition at 30 µM (HeLa cells; [3]) of 99.65 ± 0.25% and an IC50 (HeLa cells; [4]) of 6.99 µM. For the same compound, the inhibition at 10 µM (SiHa cells; [2]) was 98.98 ± 0.26%, the inhibition at 30 µM (SiHa cells; [3]) was 99.97 ± 0.42% and the IC50 (SiHa cells; [4]) was 2.3 µM. The IC50 (MDA-MB-231 cells; Homo sapiens, MDA-MB-231, 72 h, read-out: calculated IC50 value) was 4.07 µM, the inhibition at 10 µM (MDA-MB-231 cells; Homo sapiens, MDA-MB-231, 10 μM, 72 h, read-out: Growth inhibition, % ± SEM) was 97.2 ± 1.46% and the inhibition at 30 µM (MDA-MB-231 cells; Homo sapiens, MDA-MB-231, 30 μM, 72 h, read-out: Growth inhibition, % ± SEM) was 98.57 ± 0.89%. The inhibition at 10 µM ([1]; NIH/3T3, 10 μM, 72 h, read-out: Growth inhibition, % ± SEM) was 100.8 ± 0.16%, the inhibition at 30 µM ([1]; NIH/3T3, 30 μM, 72 h, read-out: Growth inhibition, % ± SEM) was 100.3 ± 0.25% and the IC50 ([1]; NIH/3T3, 72 h, read-out: calculated IC50 value) was 2.74 µM. The inhibition at 10 µM (UPCI-SCC-131 cells; Homo sapiens, UPCI-SCC-131, 10 μM, 72 h, read-out: Growth inhibition, % ± SEM) was 99.54 ± 0.33%, the inhibition at 30 µM (UPCI-SCC-131 cells; Homo sapiens, UPCI-SCC-131, 30 μM, 72 h, read-out: Growth inhibition, % ± SEM) was 99.94 ± 0.44% and the IC50 (UPCI-SCC-131 cells; Homo sapiens, UPCI-SCC-131, 72 h, read-out: calculated IC50 value) was 2.38 µM. For the same compound, the inhibition at 10 µM (C33-A cells; Homo sapiens, C-33-A, 10 μM, read-out: Growth inhibition, % ± SEM) was 93.9 ± 2.56%, the inhibition at 30 µM (C33-A cells; Homo sapiens, C-33-A, 30 μM, read-out: Growth inhibition, % ± SEM) was 100 ± 0.23% and the IC50 (C33-A cells; Homo sapiens, C-33-A, read-out: calculated IC50 value) was 3.75 µM. It also gave an inhibition at 10 µM (T47D cells; [2]) of 100.2 ± 0.28%, an inhibition at 30 µM (T47D cells; [3]) of 101.3 ± 0.47% and an IC50 (T47D cells; [4]) of 3.47 µM. For the same compound, the inhibition at 10 µM (MCF-7 cells; Homo sapiens, MCF7, MCF-7, 10 μM, 72 h, read-out: Growth inhibition, % ± SEM) was 99.7 ± 0.43%, the inhibition at 30 µM (MCF-7 cells; Homo sapiens, MCF7, MCF-7, 30 μM, 72 h, read-out: Growth inhibition, % ± SEM) was 100.6 ± 0.31% and the IC50 (MCF-7 cells; Homo sapiens, MCF7, MCF-7, 72 h, read-out: calculated IC50 value) was 3.35 µM.

For `CC12CCC3c4ccc(OCc5ccccc5)cc4CCC3C1CC(CP(=O)(c1ccc3ccccc3c1)c1ccc3ccccc3c1)C2=O` (stereo not drawn) [Compound 20, [(3-benzyloxy-17-oxo-13α-oestra-1,3,5(10)-trien-16β-yl)methyl]di(naphtalen-2-yl)phosphine oxide], the “Growth inhibition; % ± SEM” value (A2780 cells; A2780, 10 μM, 72 h) was “– (Inhibition values <20% are not presented.)”, the “Growth inhibition; % ± SEM” value (A2780 cells; A2780, 30 μM, 72 h, 30 µM) was “– (Inhibition values <20% are not presented.)” and the “Growth inhibition; % ± SEM” value (UPCI-SCC-154 cells; UPCI-SCC-154, 10 μM, 72 h, 10 µM) was 30.97 ± 2.54%. The “Growth inhibition; % ± SEM” value (UPCI-SCC-154 cells; UPCI-SCC-154, 30 μM, 72 h, 30 µM) was 28.72 ± 1.11%, the “Growth inhibition; % ± SEM” value (HeLa cells; 10 μM) was “– (Inhibition values <20% are not presented.)” and the “Growth inhibition; % ± SEM” value (HeLa cells; 30 μM) was “– (Inhibition values <20% are not presented.)”. For the same compound, the “Growth inhibition; % ± SEM” value (SiHa cells; 10 μM) was “– (Inhibition values <20% are not presented.)”, the “Growth inhibition; % ± SEM” value (SiHa cells; 30 μM) was “– (Inhibition values <20% are not presented.)” and the “Growth inhibition; % ± SEM” value (MDA-MB-231 cells; MDA-MB-231, 10 μM, 72 h) was “– (Inhibition values <20% are not presented.)”. For the same compound, the “Growth inhibition; % ± SEM” value (MDA-MB-231 cells; MDA-MB-231, 30 μM, 72 h) was “– (Inhibition values <20% are not presented.)”, the “Growth inhibition; % ± SEM” value (UPCI-SCC-131 cells; UPCI-SCC-131, 10 μM, 72 h, 10 µM) was 48.25 ± 1.46% and the “Growth inhibition; % ± SEM” value (UPCI-SCC-131 cells; UPCI-SCC-131, 30 μM, 72 h, 30 µM) was 61.12 ± 1.32%. For the same compound, the “Growth inhibition; % ± SEM” value (C33-A cells; 10 μM) was 27.94 ± 0.89%, the “Growth inhibition; % ± SEM” value (C33-A cells; 30 μM) was 26.53 ± 1.06% and the “Growth inhibition; % ± SEM” value (T47D cells; 10 μM) was 66.09 ± 0.76%. The “Growth inhibition; % ± SEM” value (T47D cells; 30 μM) was 68.56 ± 1.81%, the “Growth inhibition; % ± SEM” value (MCF-7 cells; MCF-7, 10 μM, 72 h, 10 µM) was 28.24 ± 1.66% and the “Growth inhibition; % ± SEM” value (MCF-7 cells; MCF-7, 30 μM, 72 h, 30 µM) was 22.21 ± 2.78%.
